These are literature values, as cited in US10092545B2, “Nutritional supplements for improving female fertility” (Fairhaven Health, LLC, priority 2016, dated 2018).

Data set [1] relates to oocyte-specific Pdss2-deficient animals. As to conditions: maternal dietary administration.
The next data set has as its system obese women with PCOS. As to conditions: administering for as little as two months.
For a further data set, the system named is females. Conditions: females taking myo-inositol.

For `COC1=C(OC)C(=O)C(C/C=C(\C)CC/C=C(\C)CC/C=C(\C)CC/C=C(\C)CC/C=C(\C)CC/C=C(\C)CC/C=C(\C)CC/C=C(\C)CC/C=C(\C)CCC=C(C)C)=C(C)C1=O` [CoQ10, Coenzyme Q10], in data set [1], the premature ovarian failure result is given as “could be prevented”.
`[Cr]` [chromium]: in the data set on obese women with PCOS, the “improvement of insulin sensitivity” value is “more than 30%”.
As for `COc1ccc2[nH]cc(CCNC(C)=O)c2c1` [melatonin], in the data set with infertile women, the “fertilization and pregnancy rates” value was “elevates”; the intra-follicular melatonin concentrations result is reported as “increases”; the intra-follicular oxidative damage result is “reduces”.
With `O[C@H]1[C@H](O)[C@@H](O)[C@H](O)[C@@H](O)[C@H]1O` [myo-inositol], in the data set on females, the insulin sensitivity entry is listed as “increased” and the serum testosterone level entry is reported as “decreased”.
